Entries after “also recorded” stand apart in the source; their conditions may differ.
Assays:
[1] = test system: TNF-α mRNA in murine macrophage PU5-1.8 cell line; experiment: TNF-α mRNA in LPS-stimulated macrophages (Northern blot); assay type: cell-based
Description: The murine macrophage PU5-1.8 cell line was purchased from the American Type Culture Collection (ATCC, Rockville, Md.). Cells were grown in DMEM medium supplemented with […], 0.1 mM nonessential amino acids, 2 mM glutamine and 5% fetal bovine serum (Life Technologies, Staten Island, N.Y.). Cells were maintained in a humidified atmosphere of 5% CO2-95% air at 37° C. Cells were passages twice weekly by firmly tapping the side of the flask to dislodge the adherent cells. Both nonadherent and adherent cells were passages. Exponentially growing cells were seeded at 5×10 ^5/mL, 4mL per 60-mm dish 24 h prior to the experiment. Test compounds were delivered in 1 mL volumes of the medium added to each dish at the start of the experiment. All dishes were incubated at 37° C. in 5% CO2-95% air for 3 h.
Total RNA was isolated by the guanidinium-cesium chloride method as described in N. S. Waleh, J. Gallo, T. D. Grant, B. J. Murphy, R. H. Kramer and R. M. Sutherland. (1994) “Selective downregulation of integrin receptors in spheroids of squamous cell carcinoma” Cancer Res., 54:838-843. Five to 10 μg of total RNA was electrophoresed in 1% agarose gels containing 6% formaldehyde. Following electrophoresis, gels were stained with ethidium bromide to visualize the positions of 28S and 18S RNA. The RNAs were then transferred to nylon membranes (Amersham Hybond N) by capillary blotting and fixed to the filter by exposure to UV light. The blots were probed with ^32P-labeled cDNA sequences of human TNF-α obtained from the American Type Culture Collection (ATCC). The TNF-α cDNA was a 1.1 kb PstI fragment of plasmid pE4 in E. coli MM294 (ATCC 39894). Hybridizations were carried out at 42° C. in 50% formamide, 5×SSC, 5×Denhardt's solution, 0.1% SDS, and 0.3 mg/mL salmon sperm DNA. Filters were washed by 1×SSC, 0.1% SDS, twice at room temperature for 15 min and once at 55° C. in 0.1×SSC, 0.1% SDS for 1 hr. Filters were exposed to X-ray film at −70° C. using an intensifying screen (Coronex Hi-Plus).
Hybridized bands were quantified by analyzing the images obtained by using a video densitometer (Applied Imaging Corporation, Santa Clara, Calif.). Film densities were calibrated using an optical-density wedge.

HeLa cells = experiment: Cellular microtubule networks; assay type: cell-based, human; settings: 10 μM for 1 h
[2] = test system: R3230Ac rat mammary carcinoma; experiment: Dorsal skin-fold window chamber assay; assay type: in vivo, Fischer 344 rats
Description: Details of the design and the surgical technique used for the rat dorsal skin-fold window chamber assay have been described elsewhere (Pappenfuss et al., Microvasc. Res. 18:311-318 (1979)). Briefly, the anatomical midline of the dorsal skin flap of an anesthetized rat was sutured to a pair of C-clamps and a skin-fold was retracted from the body surface by hanging the C-clamp on a stage. A circle of 1 cm of skin on each side of the skin-fold was surgically removed leaving two layers of fascia containing a few microvessels. After a pair of window frames was mounted, a piece of a R3230Ac rat mammary carcinoma (about 0.5 mm^3) from a donor rat was implanted onto the fascia in the window and the chamber was sealed with glass cover slips. On the fourth postoperative day, all tumor-containing windows were evaluated using an intravital microscope. The viability of the tumor implants, vasculature morphology, and blood flow in each window were crudely scored with 1-3 points assigned to each category. Only those windows with more than 6 points on this scale were included for further study. […] Tumor-window-bearing animals were randomly divided into treated and control groups that were stratified by the window scores. […] On day 12, the tumor windows were evaluated for the effect of the drug on tumor growth and vascularization. Images of whole tumors and tumor vasculature were obtained from four peripheral tumor areas, three to four central tumor areas, and from four areas in the surrounding granulating tissue, as described above. Again, measurements of various image parameters were made by an investigator who was unaware of the treatment protocol. Using the image analysis software, the cumulative length of all vessels in focus in each image was measured. Vascular length densities were calculated by dividing the total vessel length in a frame by the area of the frame. The diameters of all vessels in each image at high magnification were also measured and averaged.
All data were reported as means +/− the SEM for each group. The statistical significance of differences between treated and control groups was determined by using an unpaired t-test or the Mann-Whitney U-test. Statistically significant differences were defined as having a p<0.05.

[3] = oral, postoperative days 5 to 11, no significant difference to controls

## COC(=O)c1cc(I)c(Oc2ccc(OC)cc2)c(I)c1 [BTO-956, methyl-3,5-diiodo-4-(4′-methoxyphenoxy)benzoate]
[1]; 10 μM added to LPS (100 ng/mL) treated cultures, 3 h
  inhibition of TNF-α mRNA accumulation: 61%
[1]; 10 μM, without LPS, 3 h
  effect on TNF-α mRNA expression, compound only: no effect
[1]; cells treated with different concentrations
  total RNA integrity: intact
[1]; various concentrations with LPS for 3 h
  amounts of TNF-α mRNA, concentration-effect relationship: declined with the increasing concentrations
HeLa cells
  cellular microtubule networks: aberrant microtubule networks
[2]; oral, postoperative days 5 to 11
  reduction of tumor areas compared with controls: more than 50%
[2]; [3]
  vascular diameter in central tumor areas: 35.84±9.63 μm
  vascular diameter in peripheral tumor areas: 32.19±4.46 μm
  vascular diameter in surrounding areas: 21.52±3.33 μm
  vascular length density in central tumor areas: 3.26±0.81 mm/mm^2
  vascular length density in surrounding granulating tissue: 8.71±1.05 mm/^2
[2]; tumor-bearing rats, oral 500 mg/kg, up to seven days, 500 mg/kg
  body weight loss or behavioral changes / toxic effects: No significant body weight loss or behavioral changes; also recorded: No serious toxic effects

From patent publication US6433012B1, “Method for inhibiting inflammatory disease” (Large Scale Biology Corp., priority 1998, dated 2002)
